Where a name gives a salt, the structure may show the parent alone. Read-outs that look alike come from different tables or passages of the source.
Tests used:
Assay type in all cases: cell-based
[1] = tested on: human lung cancer cell line H1299; test: Caspase cascade activation in H1299 cells; conditions: NCI-H1299, 24 h, read-out: Caspase activation Potency EC50 H1299 (24 h)
Method: (§1) Human breast cancer cell line T-47D, human lung cancer cell line H1299, human hepatocellular carcinoma cell line SNU398, human colon carcinoma cell line HCT116 were grown according to media component mixtures designated by American Type Culture Collection+10% FCS (Invitrogen Corporation), in a 5% CO2-95% humidity incubator at 37° C. T-47D and H1299 cells were maintained at a cell density between 50 and 80% confluency at a cell density of 0.1 to 0.6×10^6 cells/mL. Cells were harvested at 600×g and resuspended at 0.65×10^6 cells/mL into appropriate media+10% FCS. An aliquot of 22.5 μL of cells was added to a well of a 384-well microtiter plate containing 2.5 μL of a 10% DMSO in RPMI-1640 media solution containing 0.16 to 100 μM of N-(2,5-dimethoxyphenyl)-2-methylthieno[3,2-d]pyrimidin-4-amine or other test compound (0.016 to 10 μM final). An aliquot of 22.5 μL of cells was added to a well of a 384-well microtiter plate containing 2.5 μL of a 10% DMSO in RPMI-1640 media solution without test compound as the control sample. The samples were mixed by agitation and then incubated at 37° C. for 24 h or 48 h in a 5% CO2-95% humidity incubator. After incubation, the samples were removed from the incubator and 25 μL of a solution containing 14 μM of N-(Ac-DEVD)-N′-ethoxycarbonyl-R110 (SEQ ID NO.:1) fluorogenic substrate (Cytovia, Inc.; WO99/18856), 20% sucrose (Sigma), 20 mM DTT (Sigma), 200 mM NaCl (Sigma), 40 mM Na PIPES buffer pH 7.2 (Sigma), and 500 μg/mL lysolecithin (Calbiochem) was added. The samples were mixed by agitation and incubated at room temperature. Using a fluorescent plate reader (Model SPECTRAfluor Plus, Tecan), an initial reading (T=0) was made approximately 1-2 min after addition of the substrate solution, employing excitation at 485 nm and emission at 530 nm, to determine the background fluorescence of the control sample. After the 3 h incubation, the samples were read for fluorescence as above (T=3 h).
(§2) The Relative Fluorescence Unit values (RFU) were used to calculate the sample readings as follows: RFU(T=3h)−Control RFU(T=O)=Net RFU(T=3h)
(§3) The activity of caspase cascade activation was determined by the ratio of the net RFU value for N-(2,5-dimethoxyphenyl)-2-methylthieno[3,2-d]pyrimidin-4-amine or other test compound to that of control samples. The EC50 (nM) was determined by a sigmoidal dose-response calculation (Prism 3.0, GraphPad Software Inc.).

[2] = tested on: human colon carcinoma cell line HCT116; test: Caspase cascade activation in HCT116 cells; conditions: Homo sapiens, HCT-116, 48 h, read-out: Caspase activation Potency EC50 HCT116 (48 h)
Method: as §1, §2, §3

[3] = tested on: human hepatocellular carcinoma cell line SNU398; test: Caspase cascade activation in SNU398 cells; conditions: Homo sapiens, SNU-398, 48 h, read-out: Caspase activation Potency EC50 SNU398 (48 h)
Method: as §1, §2, §3

[4] = tested on: human breast cancer cell line T-47D; test: Caspase cascade activation (DEVD-R110 fluorogenic substrate) in T-47D cells; conditions: Homo sapiens, T47D
Method: as §1, §2, §3

[5] = 24 h, T47D cells, 24 h, read-out: Caspase activation Potency EC50 T47D (24 h)
[6] = 48 h, T-47D cells, 48 h, read-out: Caspase activation Potency EC50 T-47D (48 h)

SMILES | EC50 [1] [µM] | EC50 [2] [µM] | EC50 [3] [µM] | EC50 [4, 5] [nM] | EC50 [4, 6] [nM]
COc1cc(Nc2ncnc3ccsc23)cc(OC)c1OC [Example 10, N-(3,4,5-Trimethoxyphenyl)thieno[3,2-d]pyrimidin-4-amine hydrochloride] | 5.02 | 5 | 1.05 | 65 | 72
COc1ccc(Nc2ncnc3ccsc23)cc1 [Example 19, N-(4-Methoxyphenyl)thieno[3,2-d]pyrimidin-4-amine hydrochloride] | > 10 | > 10 | > 10 | > 10000 | > 10000
COc1ccc([N+](=O)[O-])cc1Nc1ncnc2ccsc12 [Example 37, N-(2-Methoxy-5-nitrophenyl)thieno[3,2-d]pyrimidin-4-amine] | 5.06 | > 10 | 3.57 | 5070 | 5330
COc1ccccc1Nc1ncnc2ccsc12 [Example 4, N-(2-Methoxyphenyl)thieno[3,2-d]pyrimidin-4-amine] | > 10 | > 10 | > 10 | > 10000 | > 10000
COc1cc(Nc2ncnc3cc(Br)sc23)cc(OC)c1 [Example 67, 6-Bromo-N-(3,5-dimethoxyphenyl)thieno[3,2-d]pyrimidin-4-amine] | – | > 10 | 4.95 | – | 227
COc1cc(Nc2ncnc3ccsc23)cc(C(F)(F)F)c1 [Example 56, N-(5-Methoxy-3-trifluoromethylphenyl)thieno[3,2-d]pyrimidin-4-amine] | – | 2.61 | 1.03 | – | 1840
COc1ccc(C(=O)O)cc1Nc1ncnc2ccsc12 [Example 41, 4-Methoxy-3-(thieno[3,2-d]pyrimidin-4-ylamino)-benzoic acid] | > 10 | > 10 | > 10 | > 10000 | > 10000
COc1ccc(Oc2ccccc2)cc1Nc1ncnc2ccsc12 [Example 38, N-(2-Methoxy-5-phenoxyphenyl)thieno[3,2-d]pyrimidin-4-amine] | > 10 | > 10 | > 10 | > 10000 | > 10000
COc1ccc(Nc2nc(C)nc3sccc23)cc1 [Example 15, N-(4-Methoxyphenyl)-2-methylthieno[2,3-d]pyrimidin-4-amine] | 5.08 | > 10 | 5.28 | 5740 | 5460
COc1cc(Nc2nc(C)nc3cc(Br)sc23)cc(N(C)C)c1 [Example 66, 6-Bromo-N-(3-dimethylamino-5-methoxyphenyl)-2-methylthieno[3,2-d]pyrimidin-4-amine] | – | 0.498 | 0.297 | – | 65
COc1cc(Nc2ncnc3ccsc23)cc([N+](=O)[O-])c1 [Example 59, N-(3-Methoxy-5-nitrophenyl)thieno[3,2-d]pyrimidin-4-amine] | – | > 10 | 3.25 | – | > 10000
COc1cc(Nc2ncnc3cc(I)sc23)cc(OC)c1 [Example 53, N-(3,5-Dimethoxyphenyl)-6-iodothieno[3,2-d]pyrimidin-4-amine] | – | 2.45 | 0.868 | – | 723
COc1cc(Nc2ncnc3sccc23)cc(OC)c1 [Example 45, N-(3,5-Dimethoxyphenyl)thieno[2,3-d]pyrimidin-4-amine] | – | > 10 | > 10 | – | 87
COc1cc(Nc2ncnc3sc(C)cc23)cc(OC)c1 [Example 48, N-(3,5-Dimethoxyphenyl)-6-methylthieno[2,3-d]pyrimidin-4-amine] | – | > 10 | > 10 | – | 1990
Cc1cc(C)cc(Nc2ncnc3ccsc23)c1 [Example 57, N-(3,5-Dimethylphenyl)thieno[3,2-d]pyrimidin-4-amine] | – | > 10 | > 10 | – | > 10000
COc1cc(Nc2nc(C)nc3scc(C)c23)cc(OC)c1 [Example 51, N-(3,5-Dimethoxyphenyl)-2,5-dimethylthieno[2,3-d]pyrimidin-4-amine] | – | 3.7 | 2.64 | – | 2490
COc1cc(Nc2ncnc3c(C)csc23)cc(OC)c1 [Example 46, N-(3,5-Dimethoxyphenyl)-7-methylthieno[3,2-d]pyrimidin-4-amine] | – | > 10 | > 10 | – | 1520
COc1cc(Nc2nc(C)nc3ccsc23)cc(-n2cnnn2)c1 [Example 65, N-(3-Methoxy-5-(1H-tetrazol-1-yl)phenyl)-2-methylthieno[3,2-d]pyrimidin-4-amine] | – | 0.62 | 0.354 | – | 457
COc1cc(Nc2ncnc3scc(C)c23)cc(OC)c1 [Example 50, N-(3,5-Dimethoxyphenyl)-5-methylthieno[2,3-d]pyrimidin-4-amine] | – | ≥ 10 | ≥ 10 | – | 4360
COC(=O)c1cc(Nc2ncnc3ccsc23)cc(C(=O)OC)c1 [Example 58, Dimethyl 5-(thieno[3,2-d]pyrimidin-4-ylamino)benzene-1,3-dioate] | – | 0.347 | 0.168 | > 10000 | 565
COc1cc(Nc2nc(C)nc3sccc23)cc(OC)c1 [Example 55, N-(3,5-Dimethoxyphenyl)-2-methylthieno[2,3-d]pyrimidin-4-amine] | – | > 10 | > 10 | 112 | 99
COc1cc(Nc2nc(C)nc3cc(Br)sc23)cc(OC)c1 [Example 52, N-(3,5-Dimethoxyphenyl)-6-bromo-2-methylthieno[3,2-d]pyrimidin-4-amine] | – | 0.082 | 0.468 | 32 | 33
COc1cc(Nc2nc(C)nc3ccsc23)cc(N(C)C)c1 [Example 63, N-(3-Dimethylamino-5-methoxyphenyl)-2-methylthieno[3,2-d]pyrimidin-4-amine] | – | 1.26 | 0.706 | – | 320
COc1cc(Nc2ncnc3sc(-c4ccccc4)c(C)c23)cc(OC)c1 [Example 49, N-(3,5-Dimethoxyphenyl)-5-methyl-6-phenylthieno[2,3-d]pyrimidin-4-amine] | – | > 10 | > 10 | – | > 10000
CS(=O)(=O)c1cc(Nc2ncnc3ccsc23)cc(S(C)(=O)=O)c1 [Example 60, N-(3,5-Bis(methylsulfonyl)phenyl)thieno[3,2-d]pyrimidin-4-amine] | – | > 10 | > 10 | – | > 10000
COc1cc(Nc2ncnc3cc(Br)sc23)cc(N(C)C)c1 [Example 64, 6-Bromo-N-(3-dimethylamino-5-methoxyphenyl)thieno[3,2-d]pyrimidin-4-amine] | – | 1.28 | 0.565 | – | 131
COc1cc(N)cc(Nc2ncnc3ccsc23)c1 [Example 68, N-(3-Amino-5-methoxyphenyl)thieno[3,2-d]pyrimidin-4-amine] | – | > 10 | 5.08 | – | 2950
COc1cc(Nc2ncnc3sc(C)c(C)c23)cc(OC)c1 [Example 47, N-(3,5-Dimethoxyphenyl)-5,6-dimethylthieno[2,3-d]pyrimidin-4-amine] | – | > 10 | > 10 | – | > 10000
COc1cc(O)cc(Nc2ncnc3ccsc23)c1 [Example 44, N-(3-Hydroxy-5-methoxyphenyl)thieno[3,2-d]pyrimidin-4-amine] | 2.68 | – | – | 1100 | –
COc1c(Br)c(N)c(Br)c(Nc2ncnc3ccsc23)c1Br [Example 73, N-(3-Amino-2,4,6-tribromo-5-methoxyphenyl)thieno[3,2-d]pyrimidin-4-amine] | – | 1.67 | 0.605 | – | 486
